System: bacteria
Assay: Summary of bacterial counting, Tables 1 to 4
Format: cell-based
Details: carbon dioxide gas 10 to 45 cm^3 per 100 g of the food (volume at 0° C. and 1 atm)
Procedure: The bacteria counts were determined as follows. The sliced beef was diluted with a tenfold amount of sterile physiological saline to give a test liquid. One (1) ml of the test liquid was placed in sterile Petri dishes. For the viable bacteria count, a standard agar medium (manufactured by NISSUI PHARMACEUTICAL CO., LTD.) was added and the bacteria were cultured at 37° C. for 2 days. For the coliform bacteria count, a desoxycholate agar medium (manufactured by NISSUI PHARMACEUTICAL CO., LTD.) was added and the bacteria were cultured at 37° C. for 1 day. The colonies that grew were counted. The psychrophilic bacteria count was determined as follows. The sliced pork was diluted with a tenfold amount of sterile physiological saline to give a test liquid. One (1) ml of the test liquid was placed in sterile Petri dishes. A YGA agar medium (manufactured by NISSUI PHARMACEUTICAL CO., LTD.) was added and the bacteria were cultured at 10° C. for 5 days. The colonies that grew were counted.

For `O=C=O` [carbon dioxide gas, carbon dioxide], the bacterial growth was “inhibits bacterial growth”.

— US20140041337A1, “Food Packaging Method” (Kureha Corporation, priority 2007, published 2014)
